Laboratory results taken from DBAASP.
In brackets after ≈: the same amount, converted by molar mass. Several values for one entry are separate records, joined by “and”; a condition that tells them apart may be missing. Equal entries are not always repeated. Each block holds one compound with its values, some of them ahead of it.

Tests used:
Assay in all cases: ≥ marks a high value that may be exact or a test limit, other limits are often not marked, values filed in µg/mL are converted to µM
[1] = tested on: Candida albicans NCPF 1467
[2] = tested on: Enterococcus faecalis NCTC 12697
[3] = tested on: Escherichia coli NCTC 10418
[4] = tested on: Pseudomonas aeruginosa ATCC 27853
[5] = tested on: Staphylococcus aureus NCTC 10788
[6] = tested on: Staphylococcus aureus NCTC 12493
[7] = tested on: Clavibacter michiganensis subsp. michiganensis DSM 46294
[8] = tested on: Pectobacterium carotovorum subsp. carotovorum DSM 30168
[9] = tested on: Pseudomonas corrugata DSM 7228
[10] = tested on: Pseudomonas syringae pv. syringae DSM 10604
[11] = tested on: Pseudomonas syringae pv. tomato DC3000
[12] = tested on: Xanthomonas vesicatoria DSM 50861
[13] = tested on: Bacillus subtilis CMCC 63501
[14] = tested on: Enterococcus faecalis ATCC 29212
[15] = tested on: Escherichia coli UB1005
[16] = tested on: Salmonella enterica subsp. enterica serovar Pullorum C79-13
[17] = tested on: Salmonella typhimurium ATCC 7731
[18] = tested on: Staphylococcus aureus ATCC 43300
[19] = tested on: Staphylococcus epidermidis ATCC 12228
[20] = tested on: Escherichia coli ATCC 25922
[21] = tested on: Pseudomonas aeruginosa ATCC 15692
[22] = tested on: Salmonella typhimurium KCTC 1926
[23] = tested on: Candida albicans ATCC 14053
[24] = tested on: Klebsiella pneumoniae ATCC 13883
[25] = tested on: Staphylococcus aureus ATCC 29213
[26] = tested on: Acinetobacter baumannii ATCC 19606
[27] = tested on: Candida albicans ATCC 90028
[28] = tested on: Cryptococcus neoformans ATCC 208821
[29] = tested on: Klebsiella pneumoniae ATCC 700603

MIC [7]: 6.68 µM (≈ 9.99 µg/mL)
MIC [8]: 6.68 µM (≈ 9.99 µg/mL)
MIC [9]: 6.68 µM (≈ 9.99 µg/mL)
MIC [10]: 1.67 µM (≈ 2.5 µg/mL)
MIC [11]: 0.668 µM (≈ 0.999 µg/mL)
MIC [12]: 6.68 µM (≈ 9.99 µg/mL)
SMILES: CC[C@H](C)[C@H](NC(=O)[C@@H](NC(=O)[C@H](CCCCN)NC(=O)[C@H](CCCCN)NC(=O)[C@@H](NC(=O)[C@@H](NC(=O)[C@H](CCCCN)NC(=O)[C@H](CCCCN)NC(=O)[C@H](CCCCN)NC(=O)[C@H](CCCCN)NC(=O)[C@H](CCCCN)NC(=O)[C@@H](N)CCCCN)[C@@H](C)CC)[C@@H](C)CC)[C@@H](C)CC)C(N)=O [KKKKKKIIKKII]

MIC [7]: 7.89 µM (≈ 9.99 µg/mL)
MIC [8]: 7.89 µM (≈ 9.99 µg/mL)
MIC [9]: 3.94 µM (≈ 5 µg/mL)
MIC [10]: 0.0789 µM (≈ 0.0999 µg/mL)
MIC [11]: 0.789 µM (≈ 0.999 µg/mL)
MIC [12]: 7.89 µM (≈ 9.99 µg/mL)
SMILES: CC[C@H](C)[C@H](NC(=O)[C@H](CC(C)C)NC(=O)[C@H](CCCN=C(N)N)NC(=O)[C@H](CCCCN)NC(=O)[C@@H](NC(=O)[C@@H](NC(=O)[C@H](CCCCN)NC(=O)[C@H](CCCCN)NC(=O)[C@H](CCCCN)NC(=O)[C@@H](N)CCCCN)[C@@H](C)CC)[C@@H](C)CC)C(N)=O [KKKKIIKRLI]

MIC [13]: 8 µM (≈ 15.3 µg/mL)
MIC [14]: 8 µM (≈ 15.3 µg/mL)
MIC [15]: 4 µM (≈ 7.63 µg/mL)
MIC [4]: 4 µM (≈ 7.63 µg/mL)
MIC [16]: 4 µM (≈ 7.63 µg/mL)
MIC [17]: 8 µM (≈ 15.3 µg/mL)
MIC [18]: 16 µM (≈ 30.5 µg/mL)
MIC [19]: 16 µM (≈ 30.5 µg/mL)
SMILES: CC[C@H](C)[C@H](N)C(=O)N[C@@H](Cc1cnc[nH]1)C(=O)N[C@@H](CCCCN)C(=O)N[C@@H](Cc1ccccc1)C(=O)N[C@@H](Cc1c[nH]c2ccccc12)C(=O)N[C@@H](CCCN=C(N)N)C(=O)N1CCC[C@H]1C(=O)NCC(=O)N[C@@H](CCCN=C(N)N)C(=O)N[C@@H](Cc1c[nH]c2ccccc12)C(=O)N[C@@H](Cc1ccccc1)C(=O)N[C@@H](CCCCN)C(=O)N[C@@H](Cc1cnc[nH]1)C(=O)N[C@H](C(N)=O)[C@@H](C)CC [IHKFWRPGRWFKHI]

MIC [23]: ≥ 144 µM
MIC [14]: 72 µM (≈ 177 µg/mL)
MIC [20]: 25.3 µM (≈ 62.2 µg/mL)
MIC [24]: 25.3 µM (≈ 62.2 µg/mL)
MIC [4]: 144 µM (≈ 353 µg/mL)
MIC [25]: 72 µM (≈ 177 µg/mL)
SMILES: CC[C@H](C)[C@H](NC(=O)[C@@H](NC(=O)[C@H](CC(N)=O)NC(=O)[C@H](CO)NC(=O)[C@H](CC(C)C)NC(=O)[C@@H](NC(=O)CN)C(C)C)C(C)C)C(=O)NCC(=O)N[C@@H](Cc1ccc(O)cc1)C(=O)N[C@@H](CC(C)C)C(=O)N[C@@H](CCCCN)C(=O)N[C@@H](CCCCN)C(=O)N[C@@H](CC(C)C)C(=O)NCC(=O)N[C@H](C(=O)NCC(=O)N[C@@H](C)C(=O)N[C@@H](CC(C)C)C(=O)N[C@@H](CC(N)=O)C(=O)N[C@@H](C)C(=O)N[C@H](C(=O)N[C@@H](CC(C)C)C(=O)N[C@@H](CCCCN)C(=O)N[C@@H](CCC(N)=O)C(N)=O)C(C)C)[C@@H](C)O [GVLSNVIGYLKKLGTGALNAVLKQ]

Second part, the compound before the results:

SMILES: CC[C@H](C)[C@H](NC(=O)[C@@H]1CCCN1C(=O)[C@H](CC(C)C)NC(=O)[C@@H](N)Cc1ccccc1)C(=O)N[C@H](C(=O)N[C@@H](C)C(=O)N[C@@H](CCCCN)C(=O)N[C@@H](CC(C)C)C(=O)N[C@@H](CC(C)C)C(=O)N[C@@H](CO)C(=O)NCC(=O)N[C@@H](CC(C)C)C(=O)N[C@@H](CC(C)C)C(=O)NCC(=O)N[C@@H](CCCN=C(N)N)C(=O)N[C@@H](CCCCN)C(=O)N[C@@H](CCCCN)C(=O)N[C@@H](CCCN=C(N)N)C(=O)N[C@@H](CCCN=C(N)N)C(=O)N[C@@H](CCC(N)=O)C(=O)N[C@@H](CCCN=C(N)N)C(=O)N[C@@H](CCCN=C(N)N)C(=O)N[C@@H](CCCN=C(N)N)C(N)=O)C(C)C [FLPIVAKLLSGLLGRKKRRQRRR]
MIC [1]: 1 µM (≈ 2.76 µg/mL)
MIC [2]: 2 µM (≈ 5.52 µg/mL)
MIC [3]: 2 µM (≈ 5.52 µg/mL)
MIC [4]: 2 µM (≈ 5.52 µg/mL)
MIC [5]: 1 µM (≈ 2.76 µg/mL)
MIC [6]: 2 µM (≈ 5.52 µg/mL)

SMILES: CC[C@H](C)[C@H](NC(=O)[C@H](Cc1cnc[nH]1)NC(=O)[C@H](Cc1cnc[nH]1)NC(=O)[C@@H](NC(=O)[C@H](CC(C)C)NC(=O)[C@H](Cc1cnc[nH]1)NC(=O)CNC(=O)[C@H](C)NC(=O)CNC(=O)[C@H](Cc1cnc[nH]1)NC(=O)[C@@H](NC(=O)[C@@H](NC(=O)[C@H](CO)NC(=O)CNC(=O)[C@H](C)NC(=O)[C@H](Cc1ccccc1)NC(=O)[C@H](CCCN=C(N)N)NC(=O)[C@H](CC(C)C)NC(=O)[C@@H](N)Cc1ccccc1)C(C)C)[C@@H](C)CC)C(C)C)C(=O)NCC(=O)N[C@H](C(=O)N[C@@H](C)C(=O)N[C@@H](CC(C)C)C(N)=O)C(C)C [FLRFAGSVIHGAGHLVHHIGVAL]
MIC [20]: 4 µM and 8 µM
MIC [21]: ≥ 32 µM
MIC [22]: ≥ 64 µM

SMILES: CC[C@H](C)[C@H](NC(=O)CNC(=O)[C@H](Cc1cnc[nH]1)NC(=O)[C@@H](NC(=O)[C@@H](NC(=O)[C@H](CO)NC(=O)CNC(=O)[C@@H](NC(=O)[C@H](Cc1ccccc1)NC(=O)[C@H](CCCN=C(N)N)NC(=O)[C@H](CC(C)C)NC(=O)[C@@H](N)Cc1ccccc1)[C@@H](C)CC)C(C)C)[C@@H](C)CC)C(=O)NCC(=O)N[C@@H](Cc1cnc[nH]1)C(=O)N[C@@H](CC(C)C)C(=O)N[C@H](C(=O)N[C@@H](Cc1cnc[nH]1)C(=O)N[C@@H](Cc1cnc[nH]1)C(=O)N[C@H](C(=O)NCC(=O)N[C@H](C(=O)N[C@@H](C)C(=O)N[C@@H](CC(C)C)C(N)=O)C(C)C)[C@@H](C)CC)C(C)C [FLRFIGSVIHGIGHLVHHIGVAL]
MIC [21]: ≥ 64 µM
MIC [22]: ≥ 64 µM

SMILES: CC[C@H](C)[C@H](NC(=O)[C@H](C)NC(=O)[C@H](Cc1cnc[nH]1)NC(=O)[C@@H]1CCCN1C(=O)[C@@H](NC(=O)[C@H](CC(C)C)NC(=O)[C@H](CO)NC(=O)[C@H](Cc1ccccc1)NC(=O)[C@H](CC(C)C)NC(=O)[C@@H](N)Cc1ccccc1)[C@@H](C)CC)C(=O)NCC(=O)NCC(=O)N[C@@H](CC(C)C)C(=O)N[C@H](C(=O)N[C@@H](CO)C(=O)N[C@@H](C)C(=O)N[C@@H](Cc1ccccc1)C(=O)N[C@@H](CCCCN)C(N)=O)[C@@H](C)CC [FLFSLIPHAIGGLISAFK]
MIC [1]: ≥ 64 µM
MIC [3]: ≥ 150 µM
MIC [5]: 20 µM (≈ 38.6 µg/mL)

SMILES: CC(C)C[C@H](NC(=O)CNC(=O)[C@H](CO)NC(=O)CNC(=O)[C@H](Cc1cnc[nH]1)NC(=O)[C@H](CCCN=C(N)N)NC(=O)CN)C(=O)NCC(=O)N[C@@H](Cc1cnc[nH]1)C(=O)N[C@@H](CO)C(=O)N[C@@H](CO)C(=O)N[C@@H](CO)C(=O)N[C@@H](Cc1cnc[nH]1)C(=O)NCC(=O)N[C@@H](CCC(N)=O)C(=O)N[C@@H](Cc1cnc[nH]1)C(=O)NCC(=O)N[C@@H](CO)C(=O)NCC(=O)N[C@@H](CO)C(=O)NCC(=O)N[C@@H](CCCN=C(N)N)C(=O)O [GRHGSGLGHSSSHGQHGSGSGR]
MIC [26]: > 15.2 µM
MIC [27]: 15.2 µM (≈ 32 µg/mL)
MIC [28]: 15.2 µM (≈ 32 µg/mL)
MIC [20]: > 15.2 µM
MIC [29]: > 15.2 µM
MIC [4]: > 15.2 µM
MIC [18]: > 15.2 µM

SMILES: CC[C@H](C)[C@H](NC(=O)CNC(=O)CNC(=O)[C@H](CC(C)C)NC(=O)[C@@H](N)Cc1ccccc1)C(=O)N[C@@H](CC(C)C)C(=O)N[C@@H](CC(N)=O)C(=O)N[C@H](C(=O)N[C@H](C(=O)N[C@H](C(=O)NCC(=O)N[C@@H](CC(C)C)C(=O)N[C@@H](CC(C)C)C(N)=O)[C@@H](C)O)[C@@H](C)CC)[C@@H](C)O [FLGGILNTITGLL]
MIC [1]: ≥ 200 µM
MIC [5]: 30 µM (≈ 39.9 µg/mL)
